Assay results from US20170050957A1, “4-AMINO-6-(HETEROCYCLIC)PICOLINATES AND 6-AMINO-2-(HETEROCYCLIC)PYRIMIDINE-4-CARBOXYLATES AND THEIR USE AS HERBICIDES” (Dow AgroSciences LLC, priority 2013, published 2017).
Read-outs that look alike come from different tables or passages of the source.

Key:
[1] = test system: Key Broadleaf Weed and Crop Species; assay: Post-emergent Test II herbicidal activity (Table 15); assay type: in vivo; settings: post-emergence, 336 h, 14 d; for pest or weed control at 35 g/ha: 35 g ai/ha; for pest or weed control at 70 g/ha: 70 g ai/ha; for pest or weed control at 140 g/ha: 140 g ai/ha
Outline: (§1)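 Post-emergence spray; seedlings 7-21 d old, 1st-2nd true leaf; 187 L/ha; serial rates 1×-1/16×; solvent blank controls; subirrigated; visual % injury at 14 d.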

[2] = test system: Key Grass and Sedge Weeds as well as Grass Crops; assay: Post-emergent Test II herbicidal activity (Table 16); assay type: in vivo; settings: post-emergence, 336 h, 14 d; for pest or weed control at 35 g/ha: 35 g ai/ha; for pest or weed control at 70 g/ha: 70 g ai/ha; for pest or weed control at 140 g/ha: 140 g ai/ha
Outline: as §1

[3] = Abutilon theophrasti, velvetleaf (Abutilon theophrasti), read-out: Visual Growth Reduction (%) 14 Days After Application, ABUTH
[4] = Amaranthus retroflexus, redroot pigweed (Amaranthus retroflexus), read-out: Visual Growth Reduction (%) 14 Days After Application, AMARE
[5] = Brassica napus, oilseed rape, canola (Brassica napus), read-out: Visual Growth Reduction (%) 14 Days After Application, BRSNN
[6] = Chenopodium album, lambsquarters (Chenopodium album), read-out: Visual Growth Reduction (%) 14 Days After Application, CHEAL
[7] = Euphorbia heterophylla, wild poinsettia (Euphorbia heterophylla), read-out: Visual Growth Reduction (%) 14 Days After Application, EPHHL
[8] = Helianthus annuus, sunflower (Helianthus annuus), read-out: Visual Growth Reduction (%) 14 Days After Application, HELAN
[9] = Cyperus esculentus, yellow nutsedge (Cyperus esculentus), read-out: Visual Growth Reduction (%) 14 Days After Application, CYPES
[10] = Echinochloa crus-galli, barnyardgrass (Echinochloa crus-galli), read-out: Visual Growth Reduction (%) 14 Days After Application, ECHCG
[11] = Oryza sativa, rice (Oryza sativa), read-out: Visual Growth Reduction (%) 14 Days After Application, ORYSA
[12] = Setaria faberi, giant foxtail (Setaria faberi), read-out: Visual Growth Reduction (%) 14 Days After Application, SETFA
[13] = Triticum aestivum, wheat, spring (Triticum aestivum), read-out: Visual Growth Reduction (%) 14 Days After Application, TRZAS
[14] = Zea mays, maize, corn (Zea mays), read-out: Visual Growth Reduction (%) 14 Days After Application, ZEAMX

| SMILES | pest or weed control at 35 g/ha [1, 3] | pest or weed control at 70 g/ha [1, 3] | pest or weed control at 140 g/ha [1, 3] | pest or weed control at 35 g/ha [1, 4] | pest or weed control at 70 g/ha [1, 4] | pest or weed control at 140 g/ha [1, 4] | pest or weed control at 35 g/ha [1, 5] | pest or weed control at 70 g/ha [1, 5] | pest or weed control at 140 g/ha [1, 5] | pest or weed control at 35 g/ha [1, 6] | pest or weed control at 70 g/ha [1, 6] | pest or weed control at 140 g/ha [1, 6] | pest or weed control at 35 g/ha [1, 7] | pest or weed control at 70 g/ha [1, 7] | pest or weed control at 140 g/ha [1, 7] | pest or weed control at 35 g/ha [1, 8] | pest or weed control at 70 g/ha [1, 8] | pest or weed control at 140 g/ha [1, 8] | pest or weed control at 35 g/ha [2, 9] | pest or weed control at 70 g/ha [2, 9] | further results |
| --- | --- | --- | --- | --- | --- | --- | --- | --- | --- | --- | --- | --- | --- | --- | --- | --- | --- | --- | --- | --- | --- |
| COC(=O)c1nc(-c2ccc3ccoc3c2F)cc(N)c1Cl [Compound 2.11] | 95 to 100% | 95 to 100% | 95 to 100% | 95 to 100% | 95 to 100% | 95 to 100% | 75 to 84% | 85 to 94% | 95 to 100% | 95 to 100% | 95 to 100% | 95 to 100% | 95 to 100% | 95 to 100% | 95 to 100% | 45 to 59% | 60 to 74% | 75 to 84% | 0 to 29% | 0 to 29% | pest or weed control at 140 g/ha [2, 9]: 30 to 44%; pest or weed control at 35 g/ha [2, 10]: 85 to 94%; pest or weed control at 70 g/ha [2, 10]: 95 to 100%; pest or weed control at 140 g/ha [2, 10]: 95 to 100%; pest or weed control at 35 g/ha [2, 11]: 0 to 29%; pest or weed control at 70 g/ha [2, 11]: 0 to 29%; pest or weed control at 140 g/ha [2, 11]: 0 to 29%; pest or weed control at 35 g/ha [2, 12]: 45 to 59%; pest or weed control at 70 g/ha [2, 12]: 60 to 74%; pest or weed control at 140 g/ha [2, 12]: 75 to 84%; pest or weed control at 35 g/ha [2, 13]: 0 to 29%; pest or weed control at 70 g/ha [2, 13]: 0 to 29%; pest or weed control at 140 g/ha [2, 13]: 30 to 44%; pest or weed control at 35 g/ha [2, 14]: 45 to 59%; pest or weed control at 70 g/ha [2, 14]: 60 to 74%; pest or weed control at 140 g/ha [2, 14]: 85 to 94%; melting point: 148 °C |
| COC(=O)c1nc(-c2cc3occc3cc2F)cc(N)c1Cl [Compound 2.12] | 85 to 94% | 95 to 100% | 95 to 100% | 95 to 100% | 95 to 100% | 95 to 100% | 75 to 84% | 85 to 94% | 95 to 100% | 95 to 100% | 95 to 100% | 95 to 100% | 95 to 100% | 95 to 100% | 95 to 100% | 30 to 44% | 60 to 74% | 60 to 74% | 0 to 29% | 0 to 29% | pest or weed control at 140 g/ha [2, 9]: 0 to 29%; pest or weed control at 35 g/ha [2, 10]: 95 to 100%; pest or weed control at 70 g/ha [2, 10]: 95 to 100%; pest or weed control at 140 g/ha [2, 10]: 95 to 100%; pest or weed control at 35 g/ha [2, 11]: 0 to 29%; pest or weed control at 70 g/ha [2, 11]: 0 to 29%; pest or weed control at 140 g/ha [2, 11]: 0 to 29%; pest or weed control at 35 g/ha [2, 12]: 45 to 59%; pest or weed control at 70 g/ha [2, 12]: 60 to 74%; pest or weed control at 140 g/ha [2, 12]: 60 to 74%; pest or weed control at 35 g/ha [2, 13]: 0 to 29%; pest or weed control at 70 g/ha [2, 13]: 0 to 29%; pest or weed control at 140 g/ha [2, 13]: 0 to 29%; pest or weed control at 35 g/ha [2, 14]: 0 to 29%; pest or weed control at 70 g/ha [2, 14]: 30 to 44%; pest or weed control at 140 g/ha [2, 14]: 60 to 74%; melting point: 130 °C |
